Assay results published in PubChem BioAssay AID179 (DTP/NCI, 2004).
“And” between values parts separate entries of the source, which are not always exact repeats. Identical values can stand only once. The source made the active and inactive calls.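 Rule for the calls: active = compounds giving half or more protection of infected cells from virus-caused growth loss, again on retest; inactive = the rest.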 Where a SMILES comes first, the peptide text is derived from it.

Tested on: CEM cells HIV-1 protection, formazan growth assay
Assay: NCI AIDS Antiviral Assay
Conditions: for IC50: measured here: growth of uninfected CEM cells
Procedure, shortened: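 Protection of CEM cells against HIV-1 was scored from cell growth (soluble formazan) across five concentrations, with parallel uninfected cells. Lack of protection may reflect toxicity.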

| Structure (SMILES) | EC50 [µM] | IC50 | outcome |
| --- | --- | --- | --- |
| COC(=O)c1[nH]c(=S)[nH]c(=O)c1-c1ccc(Cl)cc1 | 251 | 603 µM |  |
| CC1CC(=O)C(CC(=O)O)[C@H]1C(C(=O)C(=O)Nc1cc(Cl)ccc1Cl)[N+](=O)[O-] (stereo partly drawn) |  |  | inactive |
| COc1c(Cc2cc(Cl)cc(S(=O)(=O)N(C)C)c2OC)cc(Cl)cc1S(=O)(=O)N(C)C | > 14.1 | > 14.1 µM |  |
| C[n+]1c2ccccc2n2c3ccccc3c(NCCCN3CCOCC3)c(C#N)c21 | > 20 | 0.676 µM |  |
| Cc1cc(=O)[nH]c2[nH][nH]c(=O)c12 |  |  | inactive |
| Cn1c(=O)c2c(nc3n2CCC(=O)N3CCCCl)n(C)c1=O | > 200 | 166 µM |  |
| O=C(c1cc2ccccc2o1)N(Cc1ccccc1)c1ccccc1 | > 79.4 | > 79.4 µM |  |
| CCC(C)C(NC(=O)C(CCC(N)=O)NC(=O)C1CCCN1)C(=O)NC(C(=O)NC(CC(C)C)C(=O)O)C(C)O (stereo not drawn) (H-PQITL-OH; configuration not given here) |  |  | inactive |
| OCc1c[te]c(-c2ccccc2)c1 |  |  | inactive |
| CCOC(=O)/C(=C\c1ccc(OC)cc1)P(=O)(OCC)OCC | > 380 | 77.6 µM |  |
| CC(/C=N\NC(=S)N(C)C)=N/NC(=S)N(C)C | > 2 | 0.347 µM |  |
| CCOC(=O)Nn1cnnc1Cc1ccccc1 | > 200 | > 200 µM |  |
| COc1cccc(Nc2nc3c([nH]2)c(=O)n(C)c(=O)n3C)c1 | > 170 | 89.1 µM |  |
| O=C1CC(C2(c3ccc4c(c3)OCO4)SCCCS2)CO1 (stereo not drawn) | > 155 | > 155 µM |  |
| CC(=O)C(C)(CCC(=O)O)CCC(=O)O | > 955 | > 955 µM |  |
| CN(C)C(=S)SC(=S)N(C)C | > 200 | 11 µM |  |
| O=C1NC2(CCCCC2)C2=C1CCCCC2 |  |  | inactive |
| N#CCCN(CCC#N)C(=O)Nc1cccc2ccccc12 |  |  | inactive |
| CCOC(=O)c1c(-c2ccc(Cl)cc2)c(C#N)c(=S)n(C2OC(COC(C)=O)C(OC(C)=O)C(OC(C)=O)C2OC(C)=O)c1C (stereo not drawn) | > 200 | 36.3 µM |  |
| Nc1nc(Cl)cc(NCCCCCCNc2cc(Cl)nc(N)n2)n1 |  |  | inactive |
| CNc1ccc(/C=C2\C=Cc3ccccc32)cc1I | > 20 | 3.39 µM |  |
| O=c1oc2ccccc2c2nc3cc(Cl)ccc3cc12 | > 50.1 | > 50.1 µM |  |
| c1ccc2c(c1)CCCN1CCc3ccccc3C21 (stereo not drawn) | > 200 | 51.3 µM |  |

| Structure (SMILES) | EC50 [µM] | IC50 | outcome |
| --- | --- | --- | --- |
| O=C(NCCCCCN1CCC2(CCCCC2)CC1)C(C1CCCCC1)C1CCCCC1 | > 100 | 9.33 µM |  |
| CS1(=O)=NC(=NC#N)c2ccccc21 (stereo not drawn) |  |  | inactive |
| C[C@]12CCC(=O)C(O)=C1CC[C@@H]1C2CC[C@]2(C)Nc3c(cnn3-c3ccccc3)CC12 (stereo partly drawn) |  |  | inactive |
| COc1cc2cnc3c4cc(O)ccc4ccc3c2cc1OC | > 85.1 | 44.7 µM |  |
| Cc1cc(=O)oc2cc(O)ccc12 | > 741 | 191 µM and > 200 µM |  |
| COc1c(F)c(F)c(/C(O)=C\c2nc3ccccc3[nH]c2=O)c(F)c1F | > 200 | 195 µM |  |
| CCCCCOC(=O)c1ccc(NC(=O)CN(CC)CC)cc1 | > 200 | 55 µM |  |
| CCC1C(=O)OC2OC(c3ccccc3)(c3ccccc3)NC21 (stereo not drawn) | > 200 | > 100 µM |  |
| O=C1/C(=C/c2ccccc2)N=C2Sc3c(nc[nH]c3=O)N12 |  |  | inactive |
| Cc1nc2ccc(S(=O)(=O)Nc3ccccc3)cc2c(=O)n1NC(=O)CNc1ccccc1 | > 200 | 186 µM |  |
| CC(=O)Nc1sc(Br)cc1S(=O)(=O)c1ccc(Cl)cc1 | > 200 | 31.6 µM |  |
| CC(C)(CC#N)c1cc(CC(C)(C)c2cc(CC(C)(C)c3cc(C(C)(C)C4(C)OCCO4)no3)no2)no1 | > 200 | 60.3 µM |  |
| COc1cc(/C=C2\C(=O)N(C(=O)c3ccc(NC(C)=O)cc3)N=C2C)ccc1O | > 66.1 | > 66.1 µM |  |
| Cc1cc(C)nc(NS(=O)(=O)c2ccc(NC(=O)c3cccc4c(Nc5ccc(S(=O)(=O)Nc6cc(C)on6)cc5)c5ccccc5nc34)cc2)n1 | > 35.5 | > 35.5 µM |  |
| CCOC(=O)/C=C\SCCC(=O)OC | > 1150 | 741 µM |  |
| COc1nc(C)nc2sc3c(c12)CCCC3 | > 100 | > 100 µM |  |
| CC(=O)c1c(P(=O)(OC(C)C)OC(C)C)nn(-c2ccc([N+](=O)[O-])cc2)c1C | > 166 | > 166 µM |  |
| O=C1C(Cl)N(c2ccccc2[N+](=O)[O-])C1c1c[nH]c2ccccc12 (stereo not drawn) | > 275 | 132 µM |  |
| [N-]=[N+]=NC1CC(n2cc(COCC(F)(F)F)c(=O)[nH]c2=O)OC1CO (stereo not drawn) | 5.75 | 251 µM |  |
| O=[N+]([O-])C(=C1NCCN1)C(Cl)=C(Cl)Cl | > 200 | > 200 µM |  |
| O=C1Oc2ccccc2C1C/C(=N\Nc1ccccc1)c1ccccc1O (stereo not drawn) | > 93.3 | 79.4 µM |  |
| CCOC(=O)NC(=O)c1c[nH]c(=O)[nH]c1=O | > 1100 | > 1100 µM |  |
| O=C(CNc1ccccc1C(=O)O)Nn1cnc2ccc(S(=O)(=O)Nc3ccccc3C(=O)O)cc2c1=O | > 200 | > 200 µM |  |

| Structure (SMILES) | EC50 [µM] | IC50 | outcome |
| --- | --- | --- | --- |
| Cc1ccc(N=C(N)NC#N)cc1 | > 1450 | > 1450 µM |  |
| Nc1ncnc2oc(C3OC(COC(=O)c4ccccc4)C(OC(=O)c4ccccc4)C3OC(=O)c3ccccc3)nc12 (stereo not drawn) | > 200 | 148 µM |  |
| O=C1c2ccc(S(=O)(=O)O)cc2C(=O)c2cc(S(=O)(=O)O)ccc21 |  |  | inactive |
| COC(OC)C1OCC(n2cc(F)c(=O)[nH]c2=O)C1O (stereo not drawn) | > 200 | > 200 µM |  |
| CCOC(=O)c1nnc(-c2ccccc2)nc1Cl | > 200 | > 200 µM |  |
| Cc1c2cc(Br)ccc2nc(CCl)[n+]1[O-] | > 20 | 0.977 µM |  |
| CCCCN(CCCC)C(=N)OC | > 200 | 70.8 µM |  |
| CCN(CC)C1=CC(=O)n2cccc21 | > 200 | > 200 µM |  |
| c1ccn2nncc2c1 | > 200 | > 200 µM |  |
| N#CCCN(CCC#N)Cc1c(O)c(O)c(CN(CCC#N)CCC#N)c2ccccc12 | 115 | 126 µM |  |
| COC(=O)C1CCC(=O)N1C(c1ccccc1)c1cc(OC)c(OC)c(OC)c1 (stereo not drawn) | > 200 | 34.7 µM |  |
| Cc1nc(-n2nc(-c3ccccc3)cc2-c2ccccc2)sc1C(=O)/C=C/c1cccc([N+](=O)[O-])c1 | > 14.5 | 11 µM |  |
| COc1ccc(C(OCC2OC3(COC(c4ccccc4)(c4ccc(OC)cc4)c4ccc(OC)cc4)C(Oc4nc(=O)ccn43)C2O)(c2ccccc2)c2ccc(OC)cc2)cc1 (stereo not drawn) | > 100 | > 100 µM |  |
| CC1=NC(=Cc2ccc(Cl)cc2)C(=O)N1n1c(-c2ccccc2)nc2ccccc2c1=O | > 200 | 75.9 µM |  |
| O=C1ONN(c2ccccc2)/C1=C/N=Nc1ncnc2nc[nH]c12 | 162 | > 200 µM |  |
| O=C1C2C3C=CC(C3)C2C2C3C=CC(C3)C12 (stereo not drawn) | > 324 | > 324 µM |  |
| COc1cc(Oc2nc3c(N)cc(C(F)(F)F)cc3nc2-c2ccccc2)cc(OC)c1OC | > 20 | 14.1 µM |  |
| CCOC(=O)C1Cc2ccc3c4c(ccc(c24)C1)CC(C(=O)OCC)C3 |  |  | inactive |
| C=CC(=O)N1C/C(=C\c2ccc(F)cc2)C(=O)/C(=C/c2ccc(F)cc2)C1 | > 0.2 | 0.162 µM |  |
| CCOC(=O)CNC(=O)C(CSSCC(NC(=O)OCc1ccccc1)C(=O)OC)NC(=O)C(NC(=O)OCc1ccccc1)C(C)C (stereo not drawn) | > 200 | 129 µM |  |
| C=CCCC1CCCCNC1=S (stereo not drawn) | > 200 | > 200 µM |  |
| CCOC(=O)c1ccc(CSc2ccc(Cl)cc2)cc1 | > 4.68 | > 4.68 µM |  |
| Cc1ccc(SC(CCC(Sc2ccc(C)cc2)Sc2ccc(C)cc2)Sc2ccc(C)cc2)cc1 |  |  | inactive |

| Structure (SMILES) | EC50 [µM] | IC50 | outcome |
| --- | --- | --- | --- |
| CCCCCCCCCCCCCCCCOCC(COC1OC(CO)C(O)C(O)C1O)OCCCCCCCCCCCCCCCC (stereo not drawn) | > 19.5 |  |  |
| CCOC(=O)/C(I)=C/c1cc(OC)c(OC)c(OC)c1 | > 141 | 85.1 µM |  |
| O=C1OC(=O)c2c1ccc1ccccc21 | > 50.1 | > 50.1 µM |  |
| N#C/C=C\c1ccc(C#N)cc1 | > 64.6 | > 64.6 µM |  |
| Cc1nnc2cc(C(=O)O)c3ccccc3n2c1=O | > 200 | > 200 µM |  |
| CC12OC3(O)C4C5CC(C6C5C3C61)C42 (stereo not drawn) |  |  | inactive |
| Cc1ccccc1N(CCC#N)C1=NN(C(=O)CC(=O)Nc2ccc(Cl)cc2)C(c2ccccc2)C1 (stereo not drawn) | > 501 | > 501 µM |  |
| C=C1C(=O)OC2CC(C)C3(O)C=C(C(C)=O)C4(OC3CC12)C(=O)OC1CC(C)C(/C=C\C(C)=O)=CCC14 (stereo not drawn) | > 37.2 | 19.1 µM |  |
| CC(=O)Oc1cccc2c1C(=O)C(Br)(Br)CCC2 |  |  | inactive |
| CC(C)=CCC[C@@H](C)C1=C(O)C(N)=C(C)C(=O)C1=O | > 200 | 12 µM |  |
| NN=C(N)N | > 200 | > 200 µM |  |
| CS/C(=N\N=C(/C)c1ccccn1)N1CCN(c2ccccn2)CC1 | > 123 | 17.4 µM |  |
| CC(=O)Oc1ccc2c(c1)nnn2C(C)=O | > 200 | > 200 µM |  |
| O=[N+]([O-])C(C(Cl)=C(Cl)Cl)=C(n1nnc2ccccc21)n1nnc2ccccc21 | > 200 | 26.9 µM |  |
| O=C1/C(=C/c2cccc(O)c2)COc2ccccc21 | > 123 | 4.27 µM |  |
| CC(=O)OC[C@H]1O[C@@H](O[C@H]2[C@H](OC(C)=O)C=CO[C@@H]2COC(C)=O)C(OC(C)=O)[C@H]2OC(C)(C)O[C@H]21 (stereo partly drawn) | > 200 | 69.2 µM |  |
| O=C1C=CC(=O)c2c1ccc1c3ccccc3n(CCCCCn3c4ccccc4c4ccc5c(c43)C(=O)C=CC5=O)c21 | > 200 | 3.31 µM |  |
| O=C(NS(=O)(=O)Nc1ccccc1)OCC1CCCCC1 | > 200 | 135 µM |  |
| NS(=O)(=O)c1ccc(NC(=O)c2cccnc2Nc2cccc(Cl)c2)cc1 |  |  | inactive |
| O=C(Nc1ccccc1)n1[nH]c(=O)n(-c2ccccc2)c1=O | > 200 | > 200 µM |  |
| CCOC(=O)C(NC(=O)c1ccc(N=NN(C)C)cc1)C(C)C (stereo not drawn) | > 407 | 309 µM |  |
